From article PMC7817691 (Nature Communications, 2021) come the findings set out here.

SMILES strings stand for the structures.

The target of assay [1] is T1, SARS-CoV-2 PLpro (Severe acute respiratory syndrome coronavirus 2, UniProt P0DTD1).
T1 construct: gene rep
It is filed as biochemical.

The target in assay [2] is T1, SARS-CoV-2 PLpro. It is filed as binding.

On SARS-CoV-2 PLpro [1], `Nc1nc(=S)c2[nH]cnc2[nH]1` [Tioguanine] had an IC50 of 72 ± 12 µM.
For `Cc1ccc(N)cc1C(=O)N[C@H](C)c1cccc2ccccc12` [GRL0617], the “1H,15N-HSQC NMR competition with 15N-ISG15” value at SARS-CoV-2 PLpro [2] was “GRL0617 competes with ISG15 for the binding site in PLpro”.
As for `CC(=O)Nc1ccc(C)c(C(=O)N[C@H](C)c2cccc3ccccc23)c1` [compound 6], at SARS-CoV-2 PLpro [1], 11 ± 3 µM corresponded to half-maximal inhibition (IC50).

What is called IC50 is the concentration that inhibits the measured activity by half. Read a low IC50 as inhibition by little substance.
